# In PubChem BioAssay AID179 (DTP/NCI, 2004):
# Several values for one entry are separate records, joined by “and”; a condition that tells them apart may be missing. Equal values may be shown once. Activity calls are given as the source filed them.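 How the source made its calls: active means compounds giving half or more protection of infected cells from virus-caused growth loss, again on retest; inactive means the rest.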 Where a SMILES comes first, the peptide text is derived from it. The star is where a group is joined. Cbz = O=C(OCc1ccccc1)*; NHNH2 = NN*
# System: CEM cells HIV-1 protection, formazan growth assay
# Test: NCI AIDS Antiviral Assay
# Conditions: for IC50: measured here: growth of uninfected CEM cells
# In short: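 Steps: treat uninfected and HIV-1-infected human CEM cells at five drug levels; quantify growth by soluble formazan; retest any compound reaching 50% protection; classify actives from the retest.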
Compound,EC50 [µM],IC50,outcome
CCOC(=O)/C(=C/c1cn(C(C)=O)c2ccccc12)P(C)(=O)OCC (centres undefined),> 200,37.2 µM,
COc1ccc(C2CC(c3c(C)nn(-c4ccccc4)c3-c3ccc(C)cc3O)=NN2c2ccccc2)cc1 (centres undefined),> 200,12.9 µM,
COc1cccc(/C=N/[N-]C(=O)c2ccncc2)c1[O-].[Cu+2].[OH3+],> 10.7,> 10.7 µM,
O=S(=O)(O)c1ccc(-c2nnc(-c3ccccn3)nc2-c2ccc(S(=O)(=O)O)o2)o1,> 200,> 200 µM,
Cc1cc2nc(-c3ccccc3Cl)[nH]c2cc1C,> 100,32.4 µM,
Clc1ccc(C(Cc2ccccc2)c2c(Cl)nc(N3CCNCC3)nc2Cl)cc1 (centres undefined),> 200,9.12 µM,
CC1C(=O)CC2OC3CC(C)(Cl)C(Br)CC31C2(C)C (centres undefined),,,inactive
O=c1[nH]c(C2CCCCC2)nc2ccc(Cl)cc12,,,inactive
Cc1ccc(S(=O)(=O)N(C)CC(=O)c2ccccc2)cc1,> 117,> 117 µM,
CCOC1OC(CO)C(O)CC1n1ccc(=O)[nH]c1=O (centres undefined),> 200,97.7 µM,
COc1ccc(C2OC(N)=C(C#N)C3=C2C(C)CCC3)cc1OC (centres undefined),501,631 µM,
O=C1c2c(O)cc(O)cc2O[C@H](c2ccc(O)cc2)[C@H]1[C@@H]1C(=O)c2c(O)cc(O)cc2O[C@H]1c1ccc(O)cc1,> 200,8.51 µM,
CC(=O)OC1C2CCC3CC2C2(SCCS2)C31 (centres undefined),> 200,> 200 µM,
CN(C)c1ccc(/C=C(\NC(=O)c2ccccc2)c2nn(C)c(=O)o2)cc1,> 100,> 100 µM,
S=c1oc(CCCCCCCCc2nn(CNc3ccc(Cl)cc3)c(=S)o2)nn1CNc1ccc(Cl)cc1,,,inactive
Fc1cccc(F)c1C1SCc2nc3ccccc3n21 (centres undefined),,41.7 µM and 56.2 µM,
CC(C)C(C(=O)O)C(=O)O,> 200,> 200 µM,
NC[C@H]1Nc2ccccc2[C@@H](O)C1O (some centres undefined),47.9,1290 µM,
COC(=O)c1cc2c(n1S(=O)(=O)c1ccc(C)cc1)C(=O)C(=O)c1[nH]cc(C(=O)OCc3ccccc3)c1-2,> 200,0.38 µM,
O=C(c1ccccc1)n1c2ccc(Br)cc2c2nc3ccccc3nc21,> 50.1,> 50.1 µM,
COc1cc(C(=O)NC2CCc3cc(OC)c(OC)c(OC)c3-c3ccc(OC)c(=O)cc32)cc(OC)c1OC (centres undefined),> 0.2,0.0661 µM,
Cc1cn(C2CC(O[Si](C)(C)C(C)(C)C)C(C/[N+]([O-])=N\Nc3ccc([N+](=O)[O-])cc3)O2)c(=O)[nH]c1=O (centres undefined),> 200,3.31 µM,

Compound,EC50 [µM],IC50,outcome
COc1cc(Oc2nc3ccccc3nc2C(=O)O)cc(OC)c1OC,> 200,> 200 µM,
CC(=O)Nc1ccc(C(=O)N2N=C(C)/C(=C/c3ccc(O)cc3)C2=O)cc1,> 37.2,> 37.2 µM,
CCCN(CCC)C(=S)N/N=C(/C)c1ccccc1O,> 200,15.8 µM,
[CH3][Sn]([CH3])([S]CCS(=O)(=O)O)[S]CCS(=O)(=O)O,> 200,95.5 µM,
CS(=O)(=O)OCCCNCCCOS(C)(=O)=O,> 759,562 µM,
O=CCCCCCOCc1ccccc1,> 200,3.47 µM,
N#CC1=C(S)N(C2OC(CO)C(O)C(O)C2O)C(c2ccccc2)=CC1c1ccco1 (centres undefined),> 200,42.7 µM,
Cc1ccc2c(c1)NC(=O)CC(c1ccccc1)=N2,> 200,115 µM,
CCOC(=O)C1(C#N)C(C#N)(C#N)C1(CC)CC (centres undefined),> 200,66.1 µM,
CCCCC(=O)c1c(O)nc2sccn2c1=O,> 200,155 µM,
COC(=O)C12CCCN1CCC2,26.3,> 200 µM,
O=C(Nc1ccccc1)N1CC2(CN1)CNN(C(=O)Nc1ccccc1)C2,> 182,> 182 µM,
CCC(=O)C(C)C1=Nc2nnc(CCCCCCCc3nnc4n3C(=O)C(C(C)C(=O)CC)=N4)n2C1=O (centres undefined),> 1.07,> 1.07 µM,
[O-]c1c2c(nn1-c1ccccc1)c1ccccc1c[n+]2Cc1ccccc1,,,inactive
COCOc1c(C(OCOC)c2cnc(Sc3ccccc3)n2C)ccc(OC)c1OC (centres undefined),> 200,110 µM,
CC1CN=C(N(C(=O)Nc2ccc(Cl)c(Cl)c2)c2ccccc2)S1 (centres undefined),> 200,> 200 µM,
COc1ccc(C2OCC3C2CO[C@H]3c2ccc(OC)c(OC)c2)cc1OC (mixture of isomers),> 200,93.3 µM,
CCOP(=O)(CC(=O)NC(C(N)=O)C(C)C)OCC (centres undefined),> 100,52.5 µM,
Oc1cc(O)c2ccc(-c3ccc(O)c(O)c3)[o+]c2c1,> 200,12.3 µM,
Nc1nc2c(ncn2C2C=CC(CO)C2)c(=O)[nH]1 (centres undefined),36.3,324 µM,
CCOc1ccc(N=c2ssc(SC)c2-c2ccccc2)cc1,> 200,61.7 µM,
O=S(=O)(O)CCC(O)S(=O)(=O)O (centres undefined),> 200,120 µM,

Compound,EC50 [µM],IC50,outcome
Cc1cc(C)nc(NS(=O)(=O)c2ccc(Nc3c4ccccc4nc4c(C(=O)N5CCN(CCOS(C)(=O)=O)CC5)ccc(Cl)c34)cc2)n1,> 30.9,> 30.9 µM,
CC(C)C(C(=O)O)N(CC1(O)OCC(O)C(O)C1O)N=O (centres undefined),,,inactive
CCOC(=O)/C=C/n1cc(C)c(=O)[nH]c1=O,> 224,117 µM,
CCOC(=O)N1C=NC23C(c4ccccc4)C(c4ccccc4)C12C(=O)N(C)C(=O)N3C (centres undefined),> 22.9,> 22.9 µM,
COc1ccc(/C=C(/C(C)=O)C(=O)c2ccccc2)cc1,> 129,38 µM,
CC(C)CC(NC(=O)C(CO)NC(=O)OCc1ccccc1)C(=O)NC(Cc1ccc(O)cc1)C(=O)NN (stereo not drawn) (Cbz-Ser-Leu-Tyr-NHNH2; configuration not given here),,,inactive
CC1=CCS(=O)(=O)C1C(O)C1=C(C)CCCC1(C)C (centres undefined),> 200,40.7 µM,
C=CCC1(C(C)C(O)c2cc(OC)c(OC)c(OC)c2)CC(O)C=CC12OCCO2 (centres undefined),> 200,9.12 µM,
CCc1n[nH]c(=O)n1N1C(=O)CCC1=O,> 200,> 200 µM,
CC1(C)Oc2cc3oc(=O)ccc3c3c2C2C1CCC(C)(O3)C2O (centres undefined),> 759,316 µM,
O=C1C2c3[nH]c4ccccc4c3C3CCC(c4ccccc4)CC3C2C(=O)N1c1ccccc1 (centres undefined),,,inactive
CCOP(=O)(OCC)/C(C#N)=C/c1ccccn1,148,> 200 µM,
COC(=O)C1=C2c3ccccc3-c3ccccc3C2(O)C(C(=O)OC)C1=O (centres undefined),> 1.45,> 1.45 µM,
C[N+](C)(C)CC(=O)N/N=c1\cc(C(=O)Nc2ccc(N=O)cc2C#N)oc2cc(O)ccc12,> 372,> 372 µM,
O=C1NC(=O)C(CCSSCCC2NC(=O)NC2=O)N1 (centres undefined),> 200,> 200 µM,
COc1ccccc1N(CN1C(=O)CCC1C(=O)O)C(C)=O (centres undefined),,,inactive
COP1(=O)Oc2ccccc2C(=O)C(C(F)(F)F)(C(F)(F)F)O1 (centres undefined),> 692,295 µM,
COc1ccc(C[C@H]2COC(=O)[C@@H]2Cc2cccc(Br)c2)cc1OC,> 200,31.6 µM,
CON(C)C(=O)C(Cc1ccccc1)NC(=O)OC(C)(C)C (centres undefined),> 813,155 µM,
O=[N+]([O-])c1ccc(NN=C(c2ccccc2)c2ccccc2)c([N+](=O)[O-])c1,> 52.5,> 52.5 µM,
